# Data reported in patent US20250152564A1, “PROPYLENE KETONE-CONTAINING BIOINHIBITOR, PREPARATION METHOD THEREFOR, AND USE THEREOF” (SHANGHAI HANSOH BIOMEDICAL CO., LTD., priority 2022, published 2025).
# How the values were obtained:
# [1] = biological target: FGFR1 (Homo sapiens (Human), UniProt P11362); test: TR-FRET kinase inhibition assay, FGFR1; format: biochemical; conditions: ATP Km concentration (30 μM)
# Procedure: (§1) To measure the IC50 values of the compounds against FGFR1, FGFR2, FGFR3, FGFR4, and FGFR2 V564F at ATP Km concentrations by TR-FRET method.
# (§2) TR-FRET (time-resolved fluorescence resonance energy transfer) method was used to detect the inhibitory activity of the compounds on FGFR1, FGFR2, FGFR3, FGFR4, and FGFR2 V564F kinase region fragments. The highest detection concentration of the compounds in 5 kinase experiments was 1000 nM, which was diluted in 3 folds, with a total of 11 concentrations (1000 nM to 0.017 nM). A kinase buffer (50 mM HEPES pH 7.5, 1 mM EGTA, 10 mM MgCl2, 2 mM DTT, and 0.01% Tween-20) was used to prepare 4× enzyme solution, 4× compound solutions diluted in gradient, and a 2×ATP/Peptide substrate solution. To a 384-well plate, 2.5 μL of enzyme solution and 2.5 μL of diluted […] compound solution were added, and 5 μL of 2×ATP/Peptide substrate solution was then added. After reacting at room temperature for 60 minutes for FGFR1, FGFR2, FGFR3, and FGFR2 V564F kinases, and 120 minutes for FGFR4 kinase, 10 μL of a 2× termination and detection mixed liquid prepared with 1×LANCE detection buffer with an EDTA concentration of 20 mM and a Europium-anti-phosphotyrosine (PT66) concentration of 2 nM was added to each well of the plate. After reacting at room temperature for 60 minutes for FGFR1, FGFR2, FGFR3, and FGFR4, and 30 minutes for FGFR2 V564F, the fluorescence signal value in each well of the plate was measured by a microplate reader.
# (§3) 1) Inhibition rate (%): Calculation was performed on the raw data (665 nm/620 nm reading ratio) according to the following formula to obtain the inhibition rate. Inhibition rate %=[(mean value in positive control well−value in sample well)/(mean value in positive control well−mean value in negative control well)]×100, wherein the positive control well was a reaction well without a compound […], and the negative control well was a reaction wells without an enzyme.
# (§4) 2) Curve fitting: Log(inhibitor) vs. response—Variable slope (four parameters) in GraphPad Prism 6 was used for fitting equation analysis of the compound concentration and the corresponding inhibition rate, and the curve was fitted to obtain the IC50 values of the compounds.
# [2] = system: BaF3 FGFR2-BICC1 V564F cells; test: CellTiter-Glo cell proliferation inhibition, BaF3 FGFR2-BICC1 V564F; format: cell-based; conditions: Mus musculus, 72 h, read-out: BaF3 FGFR2-BICC1 V564F inhibitory activity IC50
# Procedure: (§5) To evaluate inhibitory effects of the compounds on the proliferation of NCI-H716, SNU-16 and BaF3-FGFR2-BICC1 V564F cells by cell proliferation inhibition experiments.
# (§6) CellTiter-Glo method was used to detect inhibitory effects of the compounds on the proliferation of NCI-H716, SNU-16 and BaF3 FGFR2-BICC1 V564F cells. The highest detection concentration of the compounds was 1000 nM, which was diluted in 3 folds, with a total of 9 concentrations (1000 nM to 0.15 nM). After the cells were plated at an appropriate density, compounds were added the next day and incubated for 72 h before detection using the […] detection kit.
# as §3, with “(%):” for “(%): Calculation was performed on the raw data (665 nm/620 nm reading ratio) according to the following formula to obtain the inhibition rate.”
# as §4
# [3] = biological target: FGFR2 V564F (Homo sapiens (Human), UniProt P21802, V564F); test: TR-FRET kinase inhibition assay, FGFR2 V564F; format: biochemical; conditions: ATP Km concentration (20 μM)
# Procedure: as §1, §2, §3, §4
# [4] = system: NCI-H716 cells; test: CellTiter-Glo cell proliferation inhibition, NCI-H716; format: cell-based; conditions: Homo sapiens, 72 h, read-out: NCI-H716 cell proliferation inhibition rate IC50
# Procedure: as §5, §6
# as §3, with “(%):” for “(%): Calculation was performed on the raw data (665 nm/620 nm reading ratio) according to the following formula to obtain the inhibition rate.”
# as §4
# [5] = biological target: FGFR2 (Homo sapiens (Human), UniProt P21802); test: TR-FRET kinase inhibition assay, FGFR2; format: biochemical; conditions: ATP Km concentration (30 μM)
# Procedure: as §1, §2, §3, §4
# [6] = Pharmacokinetic experiment in SD rats after oral administration; format: in vivo; conditions: 5 mg/kg, plasma
# Procedure: To study the pharmacokinetic behavior of the compounds of the present invention in the rat body (plasma) after oral administration at a dose of 5 mg/kg using SD rats as test animals.
# 3 SD rats/group, male, from Shanghai Jiesijie Experimental Animal Co., Ltd., animal production license number (SCXK (Shanghai) 2013-0006 N0.311620400001794).
# PO, 10% solutol HS15-0.5% CMC-Na was dissolved by ultrasound and prepared into a clear solution or homogeneous suspension.
# 3 SD rats/group, male; p.o. respectively at a dose of 5 mg/kg and an administration volume of 10 mL/kg after the […] were fasted overnight.
# After oral administration to rats, at 0.25, 0.5, 1, 2, 4, 6, 8 and 24 hours, 0.2 mL of blood was collected from the jugular vein, placed in an EDTA-K2 test tube, centrifuged at 6000 rpm for 6 min at 4° C. to separate the plasma, which was stored at −80° C.
# 1) 100 μL of acetonitrile was added to 20 μL of plasma sample for pelleting, and it was mixed and centrifuged at 3500×g for 5-20 min.
# 2) The treated supernatant solution was taken and subjected to LC/MS/MS to analyze the concentrations of the test compounds. LC/MS/MS analysis instrument: AB Sciex API 4000 Qtrap.
# • Liquid phase conditions: Shimadzu LC-20AD pump • Chromatographic column: Waters Xbridge C18 5 μm, 4.6×50 mm mobile phase: liquid A was 0.1% aqueous formic acid solution, and liquid B was methanol • Flow rate: 1.0 mL/min • Elution time: 0-4.0 min, the eluent was as follows: […]
# FGFR2 V564F, sequence (P21802 481-770 V564F): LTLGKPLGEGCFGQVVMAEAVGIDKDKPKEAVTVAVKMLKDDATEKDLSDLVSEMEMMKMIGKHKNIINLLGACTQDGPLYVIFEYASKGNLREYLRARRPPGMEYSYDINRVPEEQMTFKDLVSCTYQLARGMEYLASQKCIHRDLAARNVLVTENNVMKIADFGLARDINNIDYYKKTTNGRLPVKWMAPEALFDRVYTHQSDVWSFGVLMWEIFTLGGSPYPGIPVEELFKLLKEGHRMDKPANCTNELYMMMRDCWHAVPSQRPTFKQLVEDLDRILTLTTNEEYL
# FGFR1, sequence (P11362 478-767): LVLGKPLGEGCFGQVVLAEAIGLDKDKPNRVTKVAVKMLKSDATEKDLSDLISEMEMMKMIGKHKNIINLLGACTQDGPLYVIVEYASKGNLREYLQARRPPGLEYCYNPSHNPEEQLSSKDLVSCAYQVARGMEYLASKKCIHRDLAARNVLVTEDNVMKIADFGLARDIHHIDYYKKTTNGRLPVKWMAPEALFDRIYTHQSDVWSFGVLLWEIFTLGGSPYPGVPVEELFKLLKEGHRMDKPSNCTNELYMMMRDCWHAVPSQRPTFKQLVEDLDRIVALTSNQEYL
# FGFR2, sequence (P21802 481-770): as the sequence (P21802 481-770 V564F) above, with F84V counted along it
IC50 [1],IC50 [2],IC50 [3],IC50 [4],IC50 [5],"AUC(0-t) ([6]; male, Sprague-Dawley (SD), rat, po, read-out: Area under the curve AUC0-t)","AUC(0-inf) ([6]; male, Sprague-Dawley (SD), rat, po, read-out: Area under the curve AUC0-∞)","half-life ([6]; male, Sprague-Dawley (SD), rat, po, read-out: Half-life t1/2 (converted))","MRT ([6]; male, Sprague-Dawley (SD), rat, po, read-out: Mean residence time MRT)","Cmax ([6]; male, Sprague-Dawley (SD), rat, po, read-out: Plasma concentration Cmax)",Time to peak tmax ([6]; p.o.),Compound
1.3 nM,0.9 nM,0.3 nM,1.26 nM,1 nM,–,–,–,–,–,–,"C=CC(=O)N1CC[C@H](n2nc(C#Cc3cc4ncn(C5CC5)c4cc3F)c3c(N)ncc(C(C)=O)c32)C1 [Example 7, (S)-1-(3-(7-acetyl-4-amino-3-((1-cyclopropyl-6-fluoro-1H-benzo[d]imidazol-5-yl)ethynyl)-1H-pyrazolo[4,3-c]pyridin-1-yl)pyrrolidin-1-yl)prop-2-en-1-one]"
–,0.4 nM,–,1.74 nM,–,–,–,–,–,–,–,"C=CC(=O)N1CC[C@H](n2nc(C#Cc3cc4ncn(C)c4cc3F)c3c(N)ncc(C(C)=O)c32)C1 [Example 8, (S)-1-(3-(7-acetyl-4-amino-3-((6-fluoro-1-methyl-1H-benzo[d]imidazol-5-yl)ethynyl)-1H-pyrazolo[4,3-c]pyridin-1-yl)pyrrolidin-1-yl)prop-2-en-1-one]"
–,1.6 nM,1 nM,1.82 nM,2.2 nM,–,–,–,–,–,–,"C=CC(=O)N1CC[C@H](n2nc(C#Cc3cc4ncn(C)c4cc3F)c3c(N)ncc(-c4nccs4)c32)C1 [Example 9, (S)-1-(3-(4-amino-3-((6-fluoro-1-methyl-1H-benzo[d]imidazol-5-yl)ethynyl)-7-(thiazol-2-yl)-1H-pyrazolo[4,3-c]pyridin-1-yl)pyrrolidin-1-yl)prop-2-en-1-one]"
3.6 nM,0.8 nM,0.4 nM,2.09 nM,0.7 nM,–,–,–,–,–,–,"C=CC(=O)N1CC[C@H](n2nc(C#Cc3cc4ncn(CC)c4cc3F)c3c(N)ncc(C(C)=O)c32)C1 [Example 24, (S)-1-(3-(7-acetyl-4-amino-3-((1-ethyl-6-fluoro-1H-benzo[d]imidazol-5-yl)ethynyl)-1H-pyrazolo[4,3-c]pyridin-1-yl)pyrrolidin-1-yl)prop-2-en-1-one]"
–,0.6 nM,0.7 nM,1.84 nM,–,1440 ng·h/mL,1460 ng·h/mL,4.3 h,4.59 h,290 ng/mL,2 h,"C=CC(=O)N1CC[C@H](n2nc(C#Cc3cc4ncn(C5CC5)c4cc3Cl)c3c(N)ncc(C(=O)CC)c32)C1 [Example 45, (S)-1-(3-(4-amino-3-((6-chloro-1-cyclopropyl-1H-benzo[d]imidazol-5-yl)ethynyl)-7-propionyl-1H-pyrazolo[4,3-c]pyridin-1-yl)pyrrolidin-1-yl)prop-2-en-1-one]"
3.9 nM,0.4 nM,1 nM,1.92 nM,1.3 nM,–,–,–,–,–,–,"C=CC(=O)N1CC[C@H](n2nc(C#Cc3cc4ncn(C5CC5)c4cc3F)c3c(N)ncc(C(=O)C4CC4)c32)C1 [Example 49, (S)-1-(3-(4-amino-7-(cyclopropanecarbonyl)-3-((1-cyclopropyl-6-fluoro-1H-benzo[d]imidazol-5-yl)ethynyl)-1H-pyrazolo[4,3-c]pyridin-1-yl)pyrrolidin-1-yl)prop-2-en-1-one]"
3 nM,0.4 nM,0.5 nM,1.94 nM,1.2 nM,–,–,–,–,–,–,"C=CC(=O)N1CC[C@H](n2nc(C#Cc3ccc4c(c3)ncn4CC)c3c(N)ncc(C(=O)C4CC4)c32)C1 [Example 58, (S)-1-(3-(4-amino-7-(cyclopropanecarbonyl)-3-((1-ethyl-1H-benzo[d]imidazol-5-yl)ethynyl)-1H-pyrazolo[4,3-c]pyridin-1-yl)pyrrolidin-1-yl)prop-2-en-1-one]"
4.7 nM,1.7 nM,0.4 nM,2.19 nM,0.9 nM,–,–,–,–,–,–,"C=CC(=O)N1CC[C@H](n2nc(C#Cc3cc4ncn(CC)c4cc3F)c3c(N)ncc(C(=O)CC)c32)C1 [Example 60, (S)-1-(3-(4-amino-3-((1-ethyl-6-fluoro-1H-benzo[d]imidazol-5-yl)ethynyl)-7-propionyl-1H-pyrazolo[4,3-c]pyridin-1-yl)pyrrolidin-1-yl)prop-2-en-1-one]"
2.2 nM,1 nM,0.4 nM,1.77 nM,0.8 nM,–,–,–,–,–,–,"C=CC(=O)N1CC[C@H](n2nc(C#Cc3cc4ncn(CC)c4cc3F)c3c(N)ncc(C(=O)C4CC4)c32)C1 [Example 61, (S)-1-(3-(4-amino-7-(cyclopropanecarbonyl)-3-((1-ethyl-6-fluoro-1H-benzo[d]imidazol-5-yl)ethynyl)-1H-pyrazolo[4,3-c]pyridin-1-yl)pyrrolidin-1-yl)prop-2-en-1-one]"
2.8 nM,1.4 nM,0.5 nM,1.5 nM,0.7 nM,–,–,–,–,–,–,"C=CC(=O)N1CC[C@H](n2nc(C#Cc3ccc4c(c3)ncn4C)c3c(N)ncc(C(=O)C4CC4)c32)C1 [Example 65, (S)-1-(3-(4-amino-7-(cyclopropanecarbonyl)-3-((1-methyl-1H-benzo[d]imidazol-5-yl)ethynyl)-1H-pyrazolo[4,3-c]pyridin-1-yl)pyrrolidin-1-yl)prop-2-en-1-one]"
–,2.9 nM,1.4 nM,0.92 nM,1.8 nM,–,–,–,–,–,–,"C=CC(=O)N1CC[C@H](n2nc(C#Cc3ccn4ccnc4c3)c3c(N)ncc(C(C)=O)c32)C1 [Example 77, (S)-1-(3-(7-acetyl-4-amino-3-(imidazo[1,2-a]pyridine-7-ethynylene)-1H-pyrazolo[4,3-c]pyridin-1-yl)pyrrolidine-1-methyl)prop-2-en-1-one]"
–,3.2 nM,3.1 nM,0.98 nM,1.6 nM,–,–,–,–,–,–,"C=CC(=O)N1CC[C@H](n2nc(C#Cc3ccc4csnc4c3)c3c(N)ncc(C(=O)CC)c32)C1 [Example 90, (S)-1-(3-(4-amino-3-(benzo[c]isothiazole-6-ethynylene)-7-propionyl-1H-pyrazolo[4,3-c]pyridin-1-yl)pyrrolidine-1-methyl)prop-2-en-1-one]"
